The pIC50 is the negative decadic logarithm of the IC50, by convention in mol/L. In general, IC90 refers to the concentration needed for an effect of 90%.

This passage reports IC50 and IC90 results from ChEMBL document CHEMBL4483862, “Open-source discovery of chemical leads for next-generation chemoprotective antimalarials” (2018).

pIC50: −log10 of the molar value.

For this test, the system named is Plasmodium berghei. Description: Luciferase/luciferin-expressing antifolate-resistant parasites were used to infect a culture of HepG2 cells that were pre-incubated with compounds. Infected hepatocytes emit light due to the luciferase reaction. Assay results are presented as the percent inhibition of light emission compared to control. […]. It is filed as functional. As to conditions: sporozoite; for IC90: read-out: LUCIFERASE INFECTION ASSAY - IC90.

`OC(CNCc1ccc(F)cc1)(c1ccccc1)c1ccc(F)cc1` (stereo not given): the concentration for an effect of 90% (IC90) was above 9.72 µM. For the same compound, the pIC50 (HEPG2TOX_HILL_SLOPE 7.21, HEPG2TOX_R_SQUARED 0.703, read-out: LUCIFERASE INFECTION ASSAY - IC50) was below 5.01.

Take `COc1ccc(-c2nc3c(c(=O)[nH]c(=O)n3Cc3ccccc3)n2Cc2ccccc2)cc1`: the IC90 was above 10 µM. Further, the pIC50 (HEPG2TOX_HILL_SLOPE 7.19, HEPG2TOX_R_SQUARED 0.823, PBLUC_HILL_SLOPE 10.3, PBLUC_R_SQUARED 0.181, read-out: LUCIFERASE INFECTION ASSAY - IC50) was 5.05.

On to `CC(C)c1ccc(NC2=NN=C(c3cccs3)CS2)cc1`, for which the IC90 is above 10 µM. In addition, the pIC50 (HEPG2TOX_HILL_SLOPE 7.09, HEPG2TOX_R_SQUARED 0.364, read-out: LUCIFERASE INFECTION ASSAY - IC50) was below 5.00.

For the compound `O=C(Nc1nc(-c2ccccn2)cs1)C1CC1c1ccccc1F` (stereo not given), the IC90 amounted to 3.57 µM. Besides, the pIC50 (HEPG2TOX_HILL_SLOPE 7.24, HEPG2TOX_R_SQUARED 0.0806, PBLUC_HILL_SLOPE 12.4, PBLUC_R_SQUARED 0.768, read-out: LUCIFERASE INFECTION ASSAY - IC50) was 5.52.

Regarding `COc1cc(-c2cnc3cnc(-c4cnn(C)c4)cn23)ccc1O`, the IC90 came out at 3.64 µM. The negative-log IC50 (pIC50) (HEPG2TOX_HILL_SLOPE 7.18, HEPG2TOX_R_SQUARED 0.736, PBLUC_HILL_SLOPE 4.69, PBLUC_R_SQUARED 0.709, read-out: LUCIFERASE INFECTION ASSAY - IC50) was 5.64.

Consider `CC(=O)c1cccc(-c2cnc3cnc(-c4cnn(C)c4)cn23)c1`, for which the IC90 was above 10.4 µM. Moreover, the pIC50 (HEPG2TOX_HILL_SLOPE 7.11, HEPG2TOX_R_SQUARED 0.363, PBLUC_HILL_SLOPE 4.07, PBLUC_R_SQUARED 0.503, read-out: LUCIFERASE INFECTION ASSAY - IC50) was 5.01.

For the compound `Cc1ccc2c(c1)/C(=N/Nc1nc3ccccc3s1)C(=O)N2`, the IC90 was determined as 4.93 µM. Besides, the pIC50 (HEPG2TOX_HILL_SLOPE 7.15, HEPG2TOX_R_SQUARED 0.815, PBLUC_HILL_SLOPE 8.39, PBLUC_R_SQUARED 0.507, read-out: LUCIFERASE INFECTION ASSAY - IC50) was 5.42.

In the case of `CCOC(=O)/C=C/C(=O)OCC(=O)c1ccc(C2CCCCC2)cc1`, the IC90 was above 10 µM. In addition, under “HEPG2TOX_HILL_SLOPE 7.18, HEPG2TOX_R_SQUARED 0.791, read-out: LUCIFERASE INFECTION ASSAY - IC50”, the pIC50 was below 5.00.

On to `CN(C)c1cccc(-c2cnc3cnc(-c4cccc(NS(C)(=O)=O)c4)cn23)c1`, for which the IC90 was above 8.1 µM. In addition, the pIC50 (HEPG2TOX_HILL_SLOPE 7.18, HEPG2TOX_R_SQUARED 0.638, PBLUC_HILL_SLOPE 3.24, PBLUC_R_SQUARED 0.204, read-out: LUCIFERASE INFECTION ASSAY - IC50) is 5.32.

Consider `COc1cc2c(cc1OC)C(c1cccs1)N(Cc1cc(-c3ccco3)on1)CC2` (stereo not given), for which the IC90 was above 10 µM. For the same compound, the pIC50 (HEPG2TOX_HILL_SLOPE 7.23, HEPG2TOX_R_SQUARED 0.683, PBLUC_HILL_SLOPE 1.88, PBLUC_R_SQUARED 0.215, read-out: LUCIFERASE INFECTION ASSAY - IC50) is 5.01.

Take `CCN(CC)Cc1nc(Oc2ccc(C)cc2OC)c2c(C)c(C)sc2n1`: the IC90 is above 10 µM. Moreover, the pIC50 (HEPG2TOX_HILL_SLOPE 7.2, HEPG2TOX_R_SQUARED 0.121, read-out: LUCIFERASE INFECTION ASSAY - IC50) was below 5.00.

Regarding `Oc1ccc(Br)c(/C=C/c2ccc3cccc(O)c3n2)c1`, the IC90 is above 9.64 µM. Where the note is “HEPG2TOX_HILL_SLOPE 7.26, HEPG2TOX_R_SQUARED 0.426, read-out: LUCIFERASE INFECTION ASSAY - IC50”, the pIC50 is below 5.02.

On to `O=C(/C=C/c1cn(-c2ccccc2)nc1-c1ccncc1)c1cccc(N2CCCC2=O)c1`, for which the concentration for an effect of 90% (IC90) is above 10 µM. The pIC50 (HEPG2TOX_HILL_SLOPE 7.23, HEPG2TOX_R_SQUARED 0.576, PBLUC_HILL_SLOPE 3.48, PBLUC_R_SQUARED 0.189, read-out: LUCIFERASE INFECTION ASSAY - IC50) was 5.02.

On to `Cn1cc(CN2CC=C(c3ccccc3)CC2)c2ccccc21`, for which the IC90 was above 10 µM. Moreover, the pIC50 (HEPG2TOX_HILL_SLOPE 7.11, HEPG2TOX_R_SQUARED 0.283, PBLUC_HILL_SLOPE 12.5, PBLUC_R_SQUARED 0.246, read-out: LUCIFERASE INFECTION ASSAY - IC50) is 5.02.

In the case of `CCC(=O)NC1=C(Nc2ccc(SC(F)F)cc2)C(=O)c2ccccc2C1=O`, the IC90 turned out to be 4.5 µM. In addition, the pIC50 (HEPG2TOX_HILL_SLOPE 7.23, HEPG2TOX_R_SQUARED 0.37, PBLUC_HILL_SLOPE 1.96, PBLUC_R_SQUARED 0.792, read-out: LUCIFERASE INFECTION ASSAY - IC50) is 5.83.

On to `COC(=O)c1cnc(Sc2nnc(C(F)(F)F)n2C)c([N+](=O)[O-])c1`, for which the IC90 was above 9.08 µM. Also, where the note is “HEPG2TOX_HILL_SLOPE 7.14, HEPG2TOX_R_SQUARED 0.788, read-out: LUCIFERASE INFECTION ASSAY - IC50”, the pIC50 is below 5.04.

With `c1ccc(CN2CCOCC2)c(CNc2ncnc3sccc23)c1`, the IC90 was above 10 µM. The pIC50 (HEPG2TOX_HILL_SLOPE 7.26, HEPG2TOX_R_SQUARED 0.756, read-out: LUCIFERASE INFECTION ASSAY - IC50) was below 5.00.

On to `Cc1ccccc1NC(=O)Nc1nc(C(N)COCc2ccccc2)cs1` (stereo not given), for which the IC90 was above 8.63 µM. For the same compound, for the setting “HEPG2TOX_HILL_SLOPE 7.21, HEPG2TOX_R_SQUARED 0.623, PBLUC_HILL_SLOPE 21.4, PBLUC_R_SQUARED 0.0439, read-out: LUCIFERASE INFECTION ASSAY - IC50”, the pIC50 is 5.11.

As for `CC(=O)c1cccc(-c2cnc3ccc(-c4cccc(OC(F)(F)F)c4)nn23)c1`, the IC90 is above 10 µM. Besides, the pIC50 (HEPG2TOX_HILL_SLOPE 7.2, HEPG2TOX_R_SQUARED 0.65, PBLUC_HILL_SLOPE 0.974, PBLUC_R_SQUARED 0.617, read-out: LUCIFERASE INFECTION ASSAY - IC50) is 5.86.

`CCc1ccc(NC(=O)c2cc(OC)c(OC)c(OC)c2)cc1[N+](=O)[O-]`: the IC90 was above 10 µM. Besides, the pIC50 (HEPG2TOX_HILL_SLOPE 7.15, HEPG2TOX_R_SQUARED 0.493, PBLUC_HILL_SLOPE 1.31, PBLUC_R_SQUARED 0.625, read-out: LUCIFERASE INFECTION ASSAY - IC50) was 5.22.

Take `COc1ccc(Cn2c(C)nc3c(cnn3-c3ccc(Cl)cc3)c2=O)cc1`: the IC90 was above 8.67 µM. In addition, the negative logarithm of the IC50 (pIC50) (HEPG2TOX_HILL_SLOPE 7.21, HEPG2TOX_R_SQUARED 0.304, PBLUC_HILL_SLOPE 6.35, PBLUC_R_SQUARED 0.427, read-out: LUCIFERASE INFECTION ASSAY - IC50) is 5.13.

In the case of `Oc1cccc(-c2cnc3cnc(-c4ccccc4)cn23)c1`, the IC90 is above 11.5 µM. Besides, the negative logarithm of the IC50 (pIC50) (HEPG2TOX_HILL_SLOPE 7.12, HEPG2TOX_R_SQUARED 0.466, PBLUC_HILL_SLOPE 2.24, PBLUC_R_SQUARED 0.572, read-out: LUCIFERASE INFECTION ASSAY - IC50) was 5.13.

Regarding `CCCc1cc(=O)n2nc(COc3ccccc3)c(-c3ccccc3)c2[nH]1`, the IC90 came out at 5.37 µM. For the same compound, the pIC50 (HEPG2TOX_HILL_SLOPE 7.2, HEPG2TOX_R_SQUARED 0.777, PBLUC_HILL_SLOPE 5.33, PBLUC_R_SQUARED 0.154, read-out: LUCIFERASE INFECTION ASSAY - IC50) was 5.45.

`Cc1nc(C(=N)NOC(=O)c2c(-c3c(Cl)cccc3Cl)noc2C)cs1`: the 90% effect concentration (IC90) turned out to be 1.24 µM. For the setting “HEPG2TOX_HILL_SLOPE 7.11, HEPG2TOX_R_SQUARED 0.0768, PBLUC_HILL_SLOPE 8.1, PBLUC_R_SQUARED 0.284, read-out: LUCIFERASE INFECTION ASSAY - IC50”, the negative-log IC50 (pIC50) is 6.02.

`N=C(NOC(=O)Nc1cccc(C(F)(F)F)c1)c1ccc(Oc2c(Cl)cncc2Cl)cc1`: the IC90 is above 6.8 µM. Also, the negative-log IC50 (pIC50) (HEPG2TOX_HILL_SLOPE 7.08, HEPG2TOX_R_SQUARED 0.63, PBLUC_HILL_SLOPE 1.44, PBLUC_R_SQUARED 0.448, read-out: LUCIFERASE INFECTION ASSAY - IC50) is 5.31.

On to `CN(C)c1ccccc1-c1cn2c(-c3ccc4ncccc4c3)cnc2cn1`, for which the IC90 is above 9.03 µM. Besides, the pIC50 (HEPG2TOX_HILL_SLOPE 7.2, HEPG2TOX_R_SQUARED 0.832, read-out: LUCIFERASE INFECTION ASSAY - IC50) is below 5.04.

Take `CC(=O)NCc1ccc(-c2csc(NC(=O)c3cc4cnn(C(C)C)c4nc3C)n2)s1`: the IC90 was above 10 µM. Besides, the pIC50 (HEPG2TOX_HILL_SLOPE 7.15, HEPG2TOX_R_SQUARED 0.462, PBLUC_HILL_SLOPE 31.4, PBLUC_R_SQUARED 0.13, read-out: LUCIFERASE INFECTION ASSAY - IC50) was 5.03.

As to `COc1ccc(-c2cnc3ccc(Cc4ccc(F)cc4)nn23)cc1OC`, the IC90 was 6.11 µM. The pIC50 (HEPG2TOX_HILL_SLOPE 7.18, HEPG2TOX_R_SQUARED 0.189, PBLUC_HILL_SLOPE 3.8, PBLUC_R_SQUARED 0.0747, read-out: LUCIFERASE INFECTION ASSAY - IC50) is 5.46.

In the case of `Cc1[nH]nc2ccnc(-c3cccc(Cl)c3)c12`, the IC90 was above 10 µM. Besides, the negative-log IC50 (pIC50) (HEPG2TOX_HILL_SLOPE 7.21, HEPG2TOX_R_SQUARED 0.311, read-out: LUCIFERASE INFECTION ASSAY - IC50) was below 5.00.

In the case of `O=C1/C(=C/c2ccc(F)cc2)CCC/C1=C\c1ccc(F)cc1`, the IC90 is above 10.6 µM. Moreover, where the note is “HEPG2TOX_HILL_SLOPE 7.08, HEPG2TOX_R_SQUARED 0.955, read-out: LUCIFERASE INFECTION ASSAY - IC50”, the pIC50 is below 4.97.
